# Reference: the supplement of paper PMC11451515
# Test system: P12-Ichikawa
# Assay: cell viability relative to DMSO control; higher = less cytotoxic
# Details: 48 h
# How it was run: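 NOMO1, SEM and P12-Ichikawa leukemia cells spent at least four passages adapting to each medium before use. They were seeded at 500 cells/well (NOMO1, SEM) or 1000 cells/well (P12-Ichikawa) in 5 μl in 1536-well plates and pin-dosed with library compounds in DMSO at 11 threefold steps from 47 μM down to 0.79 nM. After 48 h at 37°C, CellTiter-Glo One luminescence was read. Viability is reported as a percentage of the DMSO wells on each plate, with cell-free wells as background.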
# [1] = HPLM + 10% dialyzed FBS, 0.000781 µM
# [2] = HPLM + 10% dialyzed FBS, 0.00234 µM
# [3] = HPLM + 10% dialyzed FBS, 0.00702 µM
# [4] = HPLM + 10% dialyzed FBS, 0.0211 µM
# [5] = HPLM + 10% dialyzed FBS, 0.0632 µM
# [6] = HPLM + 10% dialyzed FBS, 0.19 µM
# [7] = HPLM + 10% dialyzed FBS, 0.569 µM
# [8] = HPLM + 10% dialyzed FBS, 1.71 µM
# [9] = HPLM + 10% dialyzed FBS, 5.12 µM
# [10] = HPLM + 10% dialyzed FBS, 15.4 µM
# [11] = HPLM + 10% dialyzed FBS, 46.1 µM
# [12] = RPMI 5 mM glucose + 10% FBS, 0.000781 µM
# [13] = RPMI 5 mM glucose + 10% FBS, 0.00234 µM
# [14] = RPMI 5 mM glucose + 10% FBS, 0.00702 µM
# [15] = RPMI 5 mM glucose + 10% FBS, 0.0211 µM
# [16] = RPMI 5 mM glucose + 10% FBS, 0.0632 µM
# [17] = RPMI 5 mM glucose + 10% FBS, 0.19 µM
# [18] = RPMI 5 mM glucose + 10% FBS, 0.569 µM
# [19] = RPMI 5 mM glucose + 10% FBS, 1.71 µM
# [20] = RPMI 5 mM glucose + 10% FBS, 5.12 µM
# [21] = RPMI 5 mM glucose + 10% FBS, 15.4 µM
# [22] = RPMI 5 mM glucose + 10% FBS, 46.1 µM
# [23] = RPMI 5 mM glucose + 10% dialyzed FBS, 0.000781 µM
# [24] = RPMI 5 mM glucose + 10% dialyzed FBS, 0.00234 µM
# [25] = RPMI 5 mM glucose + 10% dialyzed FBS, 0.00702 µM
# [26] = RPMI 5 mM glucose + 10% dialyzed FBS, 0.0211 µM
# [27] = RPMI 5 mM glucose + 10% dialyzed FBS, 0.0632 µM
# [28] = RPMI 5 mM glucose + 10% dialyzed FBS, 0.19 µM
# [29] = RPMI 5 mM glucose + 10% dialyzed FBS, 0.569 µM
# [30] = RPMI 5 mM glucose + 10% dialyzed FBS, 1.71 µM
# [31] = RPMI 5 mM glucose + 10% dialyzed FBS, 5.12 µM
# [32] = RPMI 5 mM glucose + 10% dialyzed FBS, 15.4 µM
# [33] = RPMI 5 mM glucose + 10% dialyzed FBS, 46.1 µM
SMILES,cell viability [1] [%],cell viability [2] [%],cell viability [3] [%],cell viability [4] [%],cell viability [5] [%],cell viability [6] [%],cell viability [7] [%],cell viability [8] [%],cell viability [9] [%],cell viability [10] [%],cell viability [11] [%],cell viability [12] [%],cell viability [13] [%],cell viability [14] [%],cell viability [15] [%],cell viability [16] [%],cell viability [17] [%],cell viability [18] [%],cell viability [19] [%],cell viability [20] [%],cell viability [21] [%],cell viability [22] [%],cell viability [23] [%],cell viability [24] [%],cell viability [25] [%],cell viability [26] [%],cell viability [27] [%],cell viability [28] [%],cell viability [29] [%],cell viability [30] [%],cell viability [31] [%],cell viability [32] [%],cell viability [33] [%]
N#Cc1ccnc(N2C(=O)CC[C@H]2C(=O)N(c2cncc(F)c2)[C@H](C(=O)NC2CC(F)(F)C2)c2ccccc2Cl)c1,91.1,95.2,93.7,95.4,94.9,97,74.8,48.3,10.1,10.1,15.5,88,90.2,95.4,93.1,90.5,90.5,80.5,71.5,25.4,16.2,7.62,95.5,89.9,88.5,96.7,97.5,95.6,85,83.7,35.6,26.2,18.8
CN(C)CCc1c[nH]c2ccc(C[S+](=O)([O-])N3CCCC3)cc12,104,105,110,114,114,113,114,111,107,110,84.4,106,110,110,116,109,115,118,111,111,99.8,87.5,97.1,101,108,106,113,107,117,113,104,96,84.2
C[C@H]1Oc2cc(cnc2N)-c2c(nn(C)c2C#N)CN(C)C(=O)c2ccc(F)cc21,118,120,119,120,120,124,122,110,112,112,96.3,120,122,123,113,123,119,119,112,114,114,105,,,,,,,,,,,
C[N+]1(C)[C@@H]2CC(OC(=O)C(O)(c3cccs3)c3cccs3)C[C@H]1[C@@H]1O[C@@H]12 (some centres undefined),98.7,105,109,106,109,110,109,109,103,112,102,117,113,123,111,120,126,120,116,115,111,121,105,101,100,107,105,111,109,109,111,113,101
COc1cc2ncn(-c3cc(OCc4ccccc4C(F)(F)F)c(C(N)=O)s3)c2cc1OC,114,122,108,112,121,110,95.2,45.2,13.8,11.9,11.8,117,112,121,112,110,111,115,71.5,12.2,11.8,11.1,113,111,111,112,123,109,103,85.3,19.5,17.4,12.8
Cc1cccc(-c2[nH]c(C(C)(C)C)nc2-c2ccc3c(c2)OCO3)n1,105,109,110,107,102,105,110,105,100,17.5,11.1,98.4,102,92.8,106,96.9,97,94.1,96.2,98.6,14,8.01,102,112,,108,101,101,106,95.9,96,37.1,19.6
O=C1CCCC(=O)C1C(=O)c1ccc(C(F)(F)F)cc1[N+](=O)[O-],106,106,108,118,112,113,106,105,110,98.3,100,123,116,114,123,113,109,119,110,111,109,105,113,113,107,110,115,110,108,110,108,104,99.5
